In patent US6649647B1, “Trioxane derivatives” (priority 1998, dated 2003):

How the values were obtained:
Assay type in all cases: cell-based
[1] = system: Rat 6 subclone of the immortalized F2408 embryo cell line (R6); assay: Screening for cytotoxicity, cell count by Coulter Counter, R6 cells; conditions: for LD50 (Day 3) R6: day 3 after addition; for LD50 (Day 6) R6: day 6 after addition
Description: (§1) Compounds of the invention were screened against Rat 6 subclone of the immortalized F2408 embryo cell line, and Rat 6 (R6T24) cells transfected and transformed by a c-H-ras oncogene. The screening involved placing the R6 and R6T24 cell lines plated at 10^3 cells per well into a 12-well microtiter culture plate for 24 hours. The compounds were added at final concentrations from 0.1-100 μM, and cells were trypsized and counted by Coulter Counter at day 3 and day 6 after the addition. Untreated cells were assigned a survival value of 100%.

[2] = system: Rat 6 (R6T24) cells transfected and transformed by a c-H-ras oncogene; assay: Screening for cytotoxicity, cell count by Coulter Counter, R6T24 cells; conditions: R6T24 cell line; for LD50 (Day 3) R6T24: day 3 after addition; for LD50 (Day 6) R6T24: day 6 after addition
Description: as §1

[3] = system: human colon cancer cell line SW 480; assay: Growth inhibition assay (MTT), SW 480; conditions: Table VI, 6 days incubation
Description: (§2) As another example of evaluation of cytotoxicity, cancer cell lines were also used for a growth inhibition assay. The human colon cancer cell lines SW 480 and HT 29 and the murine melanoma cell line B16F10 were used. […] After confluent growth, the cells were trypsinated and resuspended in RPMI plus 10% FCS to a cell concentration of 50000 cells per ml in case of colon cancer cell lines and 20000 in case of B16F10. 100 μl of this cell suspension were transferred in each well of a 96 well microtiter plate and incubated for 1 day at 37° C. in a CO2-incubator. Subsequently, further 100 μl RPMI medium and 1 μl of a DMSO solution, containing the artemisinin derivatives were added. The growth inhibition was estimated after 6 days incubation at 36° C. using the MTT assay.
(§3) 25 μl MTT solution (3-(4,5-dimethylthiazol-2-yl)-2,5-diphenyltetrazolium-bromid) of a starting concentration of 5 mg/ml H2O were added and incubated at 37° C. for 5 h. Subsequently, 100 μl iso-propanol per well were added. After 15 min incubation 100 μl H2O were added. After 30 min shaking, the extinction was measured at 595 nm using a ELISA-Multiplate Reader.

[4] = system: human colon cancer cell line HT 29; assay: Growth inhibition assay (MTT), HT 29; conditions: Table VI, 6 days incubation
Description: as §2, §3

[5] = system: murine melanoma cell line B16F10; assay: Growth inhibition assay (MTT), B16F10; conditions: Table VI, 6 days incubation
Description: as §2, §3

DNA within the cell = assay: DNA comet assay; conditions: cells after 3 or 6 day treatment
Source text: In this technique, cells are embedded in agarose gel on a frosted slide after 3 or 6 day treatment, the cells are then lysed and submitted to electrophoresis. The DNA was stained after electrophoresis by ethidium bromide and images of the DNA “comets” were obtained by using an image analysis software package.

Compound | LD50 (Day 3) R6 ([1]; Table VA) | LD50 (Day 6) R6 ([1]; Table VA) | LD50 (Day 3) R6T24 ([2]; Table VA) | LD50 (Day 6) R6T24 ([2]; Table VA) | LD50 SW 480 [3] | LD50 HT 29 [4] | LD50 B16F18 [5] | LD50 (Day 3) R6 ([1]; Table V) | LD50 (Day 6) R6 ([1]; Table V) | LD50 (Day 3) R6T24 ([2]; Table V) | LD50 (Day 6) R6T24 ([2]; Table V) | binding to DNA (DNA comet assay technique) (DNA within the cell)
C[C@@H]1CC[C@H]2[C@@H](C)C(c3cc4ccccc4c4ccccc34)O[C@@H]3O[C@@]4(C)CC[C@@H]1[C@]32OO4 (stereo partly shown) [Example 56] | 0.38 µM | 0.26 µM | 0.24 µM | 0.21 µM | 200 nM | 300 nM | 300 nM |  |  |  |  | 
C[C@@H]1CC[C@H]2[C@@H](C)C(=O)N(Cc3ccccc3F)[C@@H]3O[C@@]4(C)CC[C@@H]1[C@@]23OO4 [Example 15, 11-aza-N-(2-fluorobenzyl)artemisinin] | >50 µM | >50 µM | 22.7 µM | 1.69 µM | 200 nM | 1500 nM | 300 nM | 22.70 µM | >50.00 µM | >50.00 µM | 1.69 µM | 
CC1CCC2[C@@H](C)C(O)OC3O[C@]4(C)CCC1C32OO4 (stereo partly shown) [Dihydroartemisinin, dihydroartemisinin, reference compound] | 1.64 µM | 0.86 µM | 2.22 µM | 0.24 µM |  |  |  | 1.64 µM | 0.86 µM | 2.22 µM | 0.24 µM | does not bind to DNA
Cc1cc(C)c(C2O[C@@H]3O[C@@]4(C)CC[C@H]5[C@H](C)CC[C@@H]([C@H]2C)[C@@]35OO4)cc1C (stereo partly shown) [Example 61] |  |  |  |  | 150 nM | 300 nM | 250 nM |  |  |  |  | 
C[C@@H]1CC[C@H]2[C@@H](C)C(Nc3ccccc3)O[C@@H]3O[C@@]4(C)CC[C@@H]1[C@]32OO4 (stereo partly shown) [Example 30] | 0.31 µM | 0.26 µM | 0.24 µM | 0.26 µM | 100 nM | 600 nM | 400 nM | 0.31 µM | 0.26 µM | 0.24 µM | 0.26 µM | 
CC1CCC2C(C)C(c3ccccc3)OC3OC4(C)CCC1C32OO4 (stereo not drawn) [Example 2, 10β-(phenyl)dihydroartemisinin] | 0.61 µM | 0.475 µM | 3.05 µM | 0.54 µM | 300 nM | 800 nM | 500 nM | 0.61 µM | 0.475 µM | 3.05 µM | 0.54 µM | 
10α and β-[(2′-naphthylmethyl)oxy]dihydroartemisinin [Example 13α] | 0.14 µM | 0.037 µM | 0.12 µM | 0.02 µM | 200 nM | 500 nM | 300 nM |  |  |  |  | 
C[C@@H]1CC[C@H]2[C@@H](C)C(NCc3ccccc3)O[C@@H]3O[C@@]4(C)CC[C@@H]1[C@]32OO4 (stereo partly shown) [Example 36] |  |  |  |  | 60 nM | 400 nM | 50 nM |  |  |  |  | 
CC1CCC2C(C)C(OCC(F)(F)F)OC3OC4(C)CCC1C32OO4 (stereo not drawn) [Example 11, 10β-[(2′,2′,2′-trifluoroethyl)oxy]-dihydroartemisinin] | 1.56 µM | 0.87 µM | 3.31 µM | 0.39 µM | 500 nM | 1500 nM | 500 nM | 1.56 µM | 0.87 µM | 3.31 µM | 0.39 µM | 
